Test results taken from patent publication US20150209275A1, “Fast Dissolving Ocular Insert” (UNIVERSITY OF THE WITWATERSRAND, JOHANNESBURG, priority 2012, published 2015).

Tests used:
[1] = as an oral drug; cited from earlier work
[2] = tested on: CAM; experiment: Modified Hen Egg Chorioallontoic (HET-CAM) ocular toxicity test; conditions: 0.3 mL sample on CAM, 5 minutes
Description: The methodology involved using hen's eggs (50-60 g fertile) that were purchased from a local hatchery (Bruce Hatcheries, South Africa) and less than a week old. The eggs were placed in commercial incubators (Surehatch, Brakenfell, South Africa) and rotated every 12 hours. On day 3, a hole was made and the albumin was removed. The eggs were sealed by sterile heated parafilm and left in an equatorial position. On day 5 and everyday thereafter eggs were candled for viability and non-viable ones were discarded. On day 10, a window (2×2 cm) was made and 2-3 mL saline (0.9% NaCl) was added and eggs were returned to the incubator. […] The eggs were then dosed with 0.3 mL of samples and observed for 5 minutes for any effects of injury in accordance with Table 11 and this was noted. Saline was used as a control for comparison purposes. Eggs were scored for severity of any reaction and time taken to occur (Table 11). At the end of the assay the embryos were discarded immediately by placing the eggs into a freezer −80° C. The following features were used for observation of injury: hemorrhage, vascular lysis and coagulation. FIG. 9 depicts the procedure for the test.
The period taken for any untoward reaction to occur was noted and the irritation threshold was determined ([…] concentration of samples required for a minimal reaction to occur). The irritation score was calculated by means of Equation 4.

[3] = tested on: Excised rabbit corneas; experiment: Ex vivo permeation, Franz diffusion cell; format: in vitro ADME; conditions: excised rabbit cornea
Description: Franz diffusion cell apparatus was used to conduct ex vivo permeation studies. Excised rabbit corneas (11.83±0.04 mm in diameter and area […]) were mounted on the Franz diffusion cell apparatus (Permagear, Arnie Systems, USA) connected to a heating bath system for temperature control. The diffusion cell donor chamber was filled with 2 mL Simulated tear (lacrimal) fluid (SLF) (Gonjari et al., 2009) (which was maintained to simulate tear volume). 12 mL Simulated Aqueous Humor (SAH, pH 7.4, 37° C.) (Giannola et al., 2007) solution was contained in the receptor chamber. The cornea was placed such that the surface was in contact with the receptor solution which was continuously stirred by a magnetic stirrer at 20 rpm to simulate blinking. […] Aliquots of sample were withdrawn from the receptor compartment at regular intervals (30, 60, 120, 180, 240 minutes and 24 hours after insertion) and replaced with an equal volume of dissolution medium. Samples were then subjected to the quantification of drug through spectrophotometric analysis at 295 nm (Hewlett Packard 8453 Spectrophotometer, Germany) to determine the drug release and flux (rate of drug permeation per unit area). Drug flux values were calculated at the steady state per unit area by regression analysis of permeation. Drug flux values were calculated employing Equation 7. […]

Molecule: CC(C)(C)NC[C@H](O)COc1nsnc1N1CCOCC1 [timolol]
- BCS class [1]: class 1

Molecule: CCCCCCCCCCCCOS(=O)(=O)[O-].[Na+] [SDS, Sodium Dodecyl Sulphate]
- HET-CAM Inference [2]: Severe
- IS (irritation score) ([2]; scale 0-21, mean of 3 values, Sulphate): 10.4
- HET-CAM Score ([2]; score 0-3 per Table 11, mean of 3 values): 2.5

Molecule: Timolol maleate salt [Pure drug dispersion]
- steady state drug flux ([3]; SLF donor, SAH pH 7.4, 37° C. receptor): 0.000378 mg.cm^−2.min^−1
- Kp (permeability co-efficient) ([3]; mean of 3 values): 2 ×10⁻⁶ cm/s
